Results as given in patent US6841519B1, “Isoxazoline derivatives and herbicides containing the same as the active ingredient” (Kumiai Chemical Industry Co., Ltd., priority 1999, dated 2005).

Legend:
Format in all cases: in vivo
[1] = tested on: Echinochloa crus-galli (L.) Beauv. var. crusgalli (Ec); test: Test for herbicidal effect by upland foliage treatment (Test Example 3); conditions: 100 g/10 a active ingredient, examined at 14th day
Method in brief: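 Scored 14 days post-spray against a graded standard: greenhouse-grown Ec, 2 weeks old in upland soil, received whole-foliage application of diluted wettable powder (100 g active ingredient per 10 ares, spray volume 100 L per 10 ares).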

[2] = tested on: Echinochloa crus-galli (L.) Beauv. var. crusgall (Ec); test: Test for herbicidal effect by upland field soil treatment (Test Example 2), Ec
Method in brief: (§1)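 Pre-emergence soil treatment: wettable powder diluted in water and sprayed on soil just sown with Ec and Se seeds, delivering 100 g active ingredient per 10 ares in 100 liters per 10 ares. Herbicidal effect was rated against a fixed scale 21 days later, after greenhouse growth.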

[3] = tested on: Setaria viridis (L.) Beauv. (Se); test: Test for herbicidal effect by upland field soil treatment (Test Example 2), Se
Method in brief: as §1

[4] = tested on: Echinochloa oryzicola Vasing. (Eo); test: Test for herbicidal effect by paddy field soil treatment (Test Example 1); conditions: application amount (active ingredient) 100 g/10 a, examined at the 21st day from the treatment, index per Table 40
Method in brief: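 Scored on a standard scale at day 21 in the greenhouse: herbicidal effect of wettable powder applied to flooded water (3 cm depth) at 100 g a.i./10 ares, one day after sowing Eo into puddled paddy soil.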

[5] = application amount (active ingredient) 100 g/10 a, examined at the 21st day from the treatment, index per Table 40
[6] = 100 g/10 a active ingredient, examined at 21st day

| Compound | Herbicidal effect to Ec [1] | Herbicidal effect to Ec [2, 5] | Herbicidal effect to Se [3, 5] | Herbicidal effect to Eo [4] | Herbicidal effect to Ec [2, 6] | Herbicidal effect to Se [3, 6] |
| --- | --- | --- | --- | --- | --- | --- |
| CC1(C)CC(S(=O)(=O)Cc2c(F)cccc2Cl)=NO1 [Compound 1-494] | 5 (A herbicidal effect or phytotoxicity of 90% or more) | 5 (A herbicidal effect or phytotoxicity of 90% or more) | 5 (A herbicidal effect or phytotoxicity of 90% or more) | 5 (A herbicidal effect or phytotoxicity of 90% or more) |  |  |
| CC1(C)CC(S(=O)(=O)Cc2ccc(Cl)c(Cl)c2)=NO1 [Compound 1-491] | 4 (A herbicidal effect or phytotoxicity of 70% to less than 90%) | 5 (A herbicidal effect or phytotoxicity of 90% or more) | 5 (A herbicidal effect or phytotoxicity of 90% or more) | 5 (A herbicidal effect or phytotoxicity of 90% or more) |  |  |
| CC1(C)CC(S(=O)(=O)Cc2ccccc2C#N)=NO1 [Compound 1-139] | 4 (A herbicidal effect or phytotoxicity of 70% to less than 90%) | 5 (A herbicidal effect or phytotoxicity of 90% or more) | 5 (A herbicidal effect or phytotoxicity of 90% or more) | 5 (A herbicidal effect or phytotoxicity of 90% or more) |  |  |
| CC1(C)CC(S(=O)(=O)Cc2cc(C(F)(F)F)ccc2C(F)(F)F)=NO1 [Compound 1-544] | 5 (A herbicidal effect or phytotoxicity of 90% or more) |  |  | 5 (A herbicidal effect or phytotoxicity of 90% or more) | 5 (A herbicidal effect or phytotoxicity of 90% or more) | 5 (A herbicidal effect or phytotoxicity of 90% or more) |
| CC1(C)CC(S(=O)(=O)Cc2cc(C(F)(F)F)cc(C(F)(F)F)c2)=NO1 [Compound 1-543] | 4 (A herbicidal effect or phytotoxicity of 70% to less than 90%) |  |  | 5 (A herbicidal effect or phytotoxicity of 90% or more) | 5 (A herbicidal effect or phytotoxicity of 90% or more) | 5 (A herbicidal effect or phytotoxicity of 90% or more) |
| COc1cccc(C)c1CS(=O)(=O)C1=NOC(C)(C)C1 [Compound 1-583] | 4 (A herbicidal effect or phytotoxicity of 70% to less than 90%) |  |  | 5 (A herbicidal effect or phytotoxicity of 90% or more) | 5 (A herbicidal effect or phytotoxicity of 90% or more) | 5 (A herbicidal effect or phytotoxicity of 90% or more) |
| COCc1ccccc1CS(=O)(=O)C1=NOC(C)(C)C1 [Compound 1-160] | 5 (A herbicidal effect or phytotoxicity of 90% or more) | 5 (A herbicidal effect or phytotoxicity of 90% or more) | 5 (A herbicidal effect or phytotoxicity of 90% or more) | 5 (A herbicidal effect or phytotoxicity of 90% or more) |  |  |
| Cc1c(CS(=O)(=O)C2=NOC(C)(C)C2)cccc1[N+](=O)[O-] [Compound 1-537] | 4 (A herbicidal effect or phytotoxicity of 70% to less than 90%) |  |  | 5 (A herbicidal effect or phytotoxicity of 90% or more) | 5 (A herbicidal effect or phytotoxicity of 90% or more) | 5 (A herbicidal effect or phytotoxicity of 90% or more) |
| CC1(C)CC(S(=O)(=O)Cc2cccc(C(F)(F)F)c2)=NO1 [Compound 1-158] | 5 (A herbicidal effect or phytotoxicity of 90% or more) | 5 (A herbicidal effect or phytotoxicity of 90% or more) | 5 (A herbicidal effect or phytotoxicity of 90% or more) | 5 (A herbicidal effect or phytotoxicity of 90% or more) |  |  |
| CC1(C)CC(S(=O)(=O)Cc2ccccc2OC2CCCC2)=NO1 [Compound 1-609] | 5 (A herbicidal effect or phytotoxicity of 90% or more) |  |  | 5 (A herbicidal effect or phytotoxicity of 90% or more) | 5 (A herbicidal effect or phytotoxicity of 90% or more) | 5 (A herbicidal effect or phytotoxicity of 90% or more) |
| C=CCOc1cccc(C)c1CS(=O)(=O)C1=NOC(C)(C)C1 [Compound 1-606] | 4 (A herbicidal effect or phytotoxicity of 70% to less than 90%) |  |  | 5 (A herbicidal effect or phytotoxicity of 90% or more) | 5 (A herbicidal effect or phytotoxicity of 90% or more) | 5 (A herbicidal effect or phytotoxicity of 90% or more) |
| CCOc1cccc(C)c1CS(=O)(=O)C1=NOC(C)(C)C1 [Compound 1-602] | 4 (A herbicidal effect or phytotoxicity of 70% to less than 90%) |  |  | 5 (A herbicidal effect or phytotoxicity of 90% or more) | 5 (A herbicidal effect or phytotoxicity of 90% or more) | 5 (A herbicidal effect or phytotoxicity of 90% or more) |
| COc1cccc(Cl)c1CS(=O)(=O)C1=NOC(C)(C)C1 [Compound 1-563] | 4 (A herbicidal effect or phytotoxicity of 70% to less than 90%) |  |  | 5 (A herbicidal effect or phytotoxicity of 90% or more) | 5 (A herbicidal effect or phytotoxicity of 90% or more) | 5 (A herbicidal effect or phytotoxicity of 90% or more) |
| Cc1ccc(CS(=O)(=O)C2=NOC(C)(C)C2)cc1 [Compound 1-7] | 4 (A herbicidal effect or phytotoxicity of 70% to less than 90%) | 5 (A herbicidal effect or phytotoxicity of 90% or more) | 5 (A herbicidal effect or phytotoxicity of 90% or more) | 5 (A herbicidal effect or phytotoxicity of 90% or more) |  |  |
| CCOCc1ccccc1CS(=O)(=O)C1=NOC(C)(C)C1 [Compound 1-586] | 5 (A herbicidal effect or phytotoxicity of 90% or more) |  |  | 5 (A herbicidal effect or phytotoxicity of 90% or more) | 5 (A herbicidal effect or phytotoxicity of 90% or more) | 5 (A herbicidal effect or phytotoxicity of 90% or more) |
| CC1(C)CC(S(=O)(=O)Cc2c(F)c(F)c(F)c(F)c2F)=NO1 [Compound 1-531] | 5 (A herbicidal effect or phytotoxicity of 90% or more) |  |  | 5 (A herbicidal effect or phytotoxicity of 90% or more) | 5 (A herbicidal effect or phytotoxicity of 90% or more) | 5 (A herbicidal effect or phytotoxicity of 90% or more) |
| Cc1ccc([N+](=O)[O-])c(CS(=O)(=O)C2=NOC(C)(C)C2)c1 [Compound 1-540] | 5 (A herbicidal effect or phytotoxicity of 90% or more) |  |  | 5 (A herbicidal effect or phytotoxicity of 90% or more) | 5 (A herbicidal effect or phytotoxicity of 90% or more) | 5 (A herbicidal effect or phytotoxicity of 90% or more) |
| COc1ccc([N+](=O)[O-])cc1CS(=O)(=O)C1=NOC(C)(C)C1 [Compound 1-530] | 5 (A herbicidal effect or phytotoxicity of 90% or more) |  |  | 5 (A herbicidal effect or phytotoxicity of 90% or more) | 5 (A herbicidal effect or phytotoxicity of 90% or more) | 5 (A herbicidal effect or phytotoxicity of 90% or more) |
